Data: patent US4956294A, “Culture of Streptoverticillium synroense for producing an antibacterial” (Merck & Co., Inc., priority 1989, dated 1990)
Values after ≈ are worked out from the molar mass of the structure shown.

What was measured:
Staph. aureus 2865 = test: Agar dilution, antagonist-free medium; settings: Staphylococcus aureus, 2865, 20 h
E. coli TEM 2+ 4351 [1] = test: Agar dilution, antagonist-free medium; settings: Escherichia coli, 20 h
E. coli DC2 4353 = test: Agar dilution, antagonist-free medium; settings: Escherichia coli, DC24353, 20 h
E. coli 2891 [2] = test: Agar dilution, antagonist-free medium; settings: Escherichia coli, 2891, 20 h
Sal. typhimurium 3860 [3] = test: Agar dilution, antagonist-free medium; settings: Salmonella enterica, 20 h
Ent. cloacae P99- 2647 [4] = test: Agar dilution, antagonist-free medium; settings: Enterobacter cloacae, P992647, 20 h
Prot. vulgaris 2829 [5] = test: Agar dilution, antagonist-free medium; settings: Proteus vulgaris, 2829, 20 h
Ps. aeruginosa 4279 = test: Agar dilution, antagonist-free medium; settings: Pseudomonas aeruginosa, 4279, 20 h
Ser. marcescens 2840 [6] = test: Agar dilution, antagonist-free medium; settings: Serratia marcescens, 2840, 20 h
[7] = test system: Actinomyces naeslundii 4053; test: Anaerobic agar dilution, Wilkens-Chalgren agar; type: cell-based; settings: Actinomyces naeslundii, 4053; anaerobic, inoculum 10^6 cfu/spot, 35° C., 48 hours; read-out: MIC
Eubacterium limosum 3344 = test: Anaerobic agar dilution, Wilkens-Chalgren agar; type: cell-based; settings: inoculum 10^6 cfu/spot, 35° C., 48 hours
Protocol: (a) Wilkens-Chalgren agar was used instead of antagonist-free medium (Roche);
(b) The inoculum/spot was about 10^6 instead of about 10^4 ;
(c) The incubation period was for 48 hours, not 24 hours; and
(d) Incubations were performed under anaerobic conditions.

[8] = test system: Propionibacterium acnes 2249; test: Anaerobic agar dilution, Wilkens-Chalgren agar; type: cell-based; settings: Cutibacterium acnes, 2249; anaerobic, inoculum 10^6 cfu/spot, 35° C., 48 hours; read-out: MIC
[9] = test system: Peptostreptococcus anaerobius 3282; test: Anaerobic agar dilution, Wilkens-Chalgren agar; type: cell-based; settings: Peptostreptococcus anaerobius, 3282; anaerobic, inoculum 10^6 cfu/spot, 35° C., 48 hours; read-out: MIC
[10] = test system: Clostridium perfringens NCCLS control strain 4418; test: microbe, parasite or virus in culture; type: cell-based; settings: 48 h
C. perfringens 2237 = test: microbe, parasite or virus in culture; type: cell-based; settings: Clostridium perfringens, 2237, 48 h
C. perfringens 3508 = test: microbe, parasite or virus in culture; type: cell-based; settings: Clostridium perfringens, 3508, 48 h
C. perfringens 3509 = test: microbe, parasite or virus in culture; type: cell-based; settings: Clostridium perfringens, 3509, 48 h
C. perfringens 3510 = test: microbe, parasite or virus in culture; type: cell-based; settings: Clostridium perfringens, 3510, 48 h
C. perfringens 3511 = test: microbe, parasite or virus in culture; type: cell-based; settings: Clostridium perfringens, 3511, 48 h
C. perfringens 3512 = test: microbe, parasite or virus in culture; type: cell-based; settings: Clostridium perfringens, 3512, 48 h
C. perfringens 3513 = test: microbe, parasite or virus in culture; type: cell-based; settings: Clostridium perfringens, 3513, 48 h
C. ramosum 4272 = test: Anaerobic agar dilution, Wilkens-Chalgren agar; type: cell-based; settings: Thomasclavelia ramosa, 4272; anaerobic, inoculum 10^6 cfu/spot, 35° C., 48 hours; read-out: MIC
[11] = test system: C. difficile Clind^r 4273; test: Anaerobic agar dilution, Wilkens-Chalgren agar; type: cell-based; settings: Clostridioides difficile; anaerobic, inoculum 10^6 cfu/spot, 35° C., 48 hours; read-out: MIC
C. difficile Fox^r 4380 = test: Anaerobic agar dilution, Wilkens-Chalgren agar; type: cell-based; settings: Clostridioides difficile; anaerobic, inoculum 10^6 cfu/spot, 35° C., 48 hours; read-out: MIC
[12] = test system: Bifidobacterium dentium Fox^r 4427; test: Anaerobic agar dilution, Wilkens-Chalgren agar; type: cell-based; settings: 48 h
[13] = test system: Bacteroides fragilis Met^r . Pen^r 4324; test: Anaerobic agar dilution, Wilkens-Chalgren agar; type: cell-based; settings: anaerobic, inoculum 10^6 cfu/spot, 35° C., 48 hours, read-out: MIC
B. fragilis Pen^r 3214 = test: Anaerobic agar dilution, Wilkens-Chalgren agar; type: cell-based; settings: Bacteroides fragilis; anaerobic, inoculum 10^6 cfu/spot, 35° C., 48 hours; read-out: MIC
[14] = test system: B. fragilis Clind^r, Fox^r, Tet^r 4360; test: Anaerobic agar dilution, Wilkens-Chalgren agar; type: cell-based; settings: Bacteroides fragilis; anaerobic, inoculum 10^6 cfu/spot, 35° C., 48 hours; read-out: MIC
[15] = test system: B. fragilis NCCLS control strain 4419; test: Anaerobic agar dilution, Wilkens-Chalgren agar; type: cell-based; settings: Bacteroides fragilis; anaerobic, inoculum 10^6 cfu/spot, 35° C., 48 hours; read-out: MIC
[16] = test system: B. distasonis Pen^r, Fox^r, Clind^r 4361; test: Anaerobic agar dilution, Wilkens-Chalgren agar; type: cell-based; settings: Parabacteroides distasonis; anaerobic, inoculum 10^6 cfu/spot, 35° C., 48 hours; read-out: MIC
[17] = test system: B. distasonis Pen^r, Fox^r 3445; test: Anaerobic agar dilution, Wilkens-Chalgren agar; type: cell-based; settings: Parabacteroides distasonis, 48 h
B. ovatus Pen^r 3248 = test: Anaerobic agar dilution, Wilkens-Chalgren agar; type: cell-based; settings: Bacteroides ovatus; anaerobic, inoculum 10^6 cfu/spot, 35° C., 48 hours; read-out: MIC
[18] = test system: B. thetalotamicron Clind^r 4362; test: Anaerobic agar dilution, Wilkens-Chalgren agar; type: cell-based; settings: anaerobic, inoculum 10^6 cfu/spot, 35° C., 48 hours; read-out: MIC
[19] = test system: B. thetalotamicron Clind^r, NCCLS control strain 4420; test: Anaerobic agar dilution, Wilkens-Chalgren agar; type: cell-based; settings: anaerobic, inoculum 10^6 cfu/spot, 35° C., 48 hours; read-out: MIC
B. asaccharolyticus 4271 = test: Anaerobic agar dilution, Wilkens-Chalgren agar; type: cell-based; settings: Porphyromonas asaccharolytica, 4271; anaerobic, inoculum 10^6 cfu/spot, 35° C., 48 hours; read-out: MIC
[20] = test system: Fusobacterium mortiferum Fox^r 3345; test: Anaerobic agar dilution, Wilkens-Chalgren agar; type: cell-based; settings: anaerobic, inoculum 10^6 cfu/spot, 35° C., 48 hours, read-out: MIC
[21] = test system: Veillonella alcalescens 1952; test: Anaerobic agar dilution, Wilkens-Chalgren agar; type: cell-based; settings: Veillonella parvula, 1952; anaerobic, inoculum 10^6 cfu/spot, 35° C., 48 hours; read-out: MIC
[22] = test system: S. aureus Gm^r Meth^r 4310; test: Agar dilution, trypticase soy agar; settings: Staphylococcus aureus, 20 h
E. coli TEM 2+ 4351 [23] = test: Agar dilution, trypticase soy agar; settings: Escherichia coli, 20 h
E. coli TEM 2+ DC2 4352 = test: Agar dilution, trypticase soy agar; settings: Escherichia coli, 20 h
E. coli 2891 [24] = test: Agar dilution, trypticase soy agar; settings: Escherichia coli, 2891, 20 h
Sal. typhimurium 3860 [25] = test: Agar dilution, trypticase soy agar; settings: Salmonella enterica, 20 h
Ent. cloacae P99+ 2646 = test: Agar dilution, trypticase soy agar; settings: Enterobacter cloacae, 20 h
Ent. cloacae P99- 2647 [26] = test: Agar dilution, trypticase soy agar; settings: Enterobacter cloacae, P992647, 20 h
K. pneumoniae K1+ 4354 = test: Agar dilution, trypticase soy agar; settings: Klebsiella pneumoniae, 20 h
K. pneumoniae 4005 = test: Agar dilution, trypticase soy agar; settings: Klebsiella pneumoniae, 4005, 20 h
Prot. vulgaris 2829 [27] = test: Agar dilution, trypticase soy agar; settings: Proteus vulgaris, 2829, 20 h
Prot. morganii Sm^r 2833 = test: Agar dilution, trypticase soy agar; settings: Morganella morganii, 20 h
[28] = test system: Prot. mirabilis Gm^r 2830; test: Agar dilution, trypticase soy agar; settings: Proteus mirabilis, 20 h
[29] = test system: Ps. aeruginosa RPL11+ 3350; test: Agar dilution, trypticase soy agar; settings: Pseudomonas aeruginosa, 20 h
Ser. marcescens 2840 [30] = test: Agar dilution, trypticase soy agar; settings: Serratia marcescens, 2840, 20 h

## N[C@@H]1CONC1=O [D-Cycloserine, D-cycloserine, reference compound]
Staph. aureus 2865
  MIC: 2 µg/mL (≈ 19.6 µM)
E. coli TEM 2+ 4351 [1]
  MIC: 2 µg/mL (≈ 19.6 µM)
E. coli DC2 4353
  MIC: 8 µg/mL (≈ 78.4 µM)
E. coli 2891 [2]
  MIC: 4 µg/mL (≈ 39.2 µM)
Sal. typhimurium 3860 [3]
  MIC: 4 µg/mL (≈ 39.2 µM)
Ent. cloacae P99- 2647 [4]
  MIC: 4 µg/mL (≈ 39.2 µM)
Prot. vulgaris 2829 [5]
  MIC: 32 µg/mL (≈ 313 µM)
Ps. aeruginosa 4279
  MIC: 16 µg/mL (≈ 157 µM)
Ser. marcescens 2840 [6]
  MIC: > 256 µg/mL

## CO[C@@]1(NC(=O)Cc2cccs2)C(=O)N2C(C(=O)O)=C(COC(N)=O)CS[C@@H]21 [CEFOXITIN, Cefoxitin, reference compound]
[7]
  MIC: 0.015 µg/mL (≈ 0.0351 µM)
Eubacterium limosum 3344
  MIC: 1 µg/mL (≈ 2.34 µM)
[8]
  MIC: 0.06 µg/mL (≈ 0.14 µM)
[9]
  MIC: 1 µg/mL (≈ 2.34 µM)
[10]
  MIC: 1 µg/mL (≈ 2.34 µM)
C. perfringens 2237
  MIC: 2 µg/mL (≈ 4.68 µM)
C. perfringens 3508
  MIC: 0.25 µg/mL (≈ 0.585 µM)
C. perfringens 3509
  MIC: 0.25 µg/mL (≈ 0.585 µM)
C. perfringens 3510
  MIC: 0.5 µg/mL (≈ 1.17 µM)
C. perfringens 3511
  MIC: 1 µg/mL (≈ 2.34 µM)
C. perfringens 3512
  MIC: 1 µg/mL (≈ 2.34 µM)
C. perfringens 3513
  MIC: 2 µg/mL (≈ 4.68 µM)
C. ramosum 4272
  MIC: 32 µg/mL (≈ 74.9 µM)
[11]
  MIC: 4 µg/mL (≈ 9.36 µM)
C. difficile Fox^r 4380
  MIC: 64 µg/mL (≈ 150 µM)
[12]
  MIC: 64 µg/mL (≈ 150 µM)
[13]
  MIC: 4 µg/mL (≈ 9.36 µM)
B. fragilis Pen^r 3214
  MIC: 16 µg/mL (≈ 37.4 µM)
[14]
  MIC: 32 µg/mL (≈ 74.9 µM)
[15]
  MIC: 8 µg/mL (≈ 18.7 µM)
[16]
  MIC: 32 µg/mL (≈ 74.9 µM)
[17]
  MIC: 128 µg/mL (≈ 299 µM)
B. ovatus Pen^r 3248
  MIC: 32 µg/mL (≈ 74.9 µM)
[18]
  MIC: 32 µg/mL (≈ 74.9 µM)
[19]
  MIC: 32 µg/mL (≈ 74.9 µM)
B. asaccharolyticus 4271
  MIC: 0.5 µg/mL (≈ 1.17 µM)
[20]
  MIC: 32 µg/mL (≈ 74.9 µM)
[21]
  MIC: 1 µg/mL (≈ 2.34 µM)
[22]
  MIC: > 128 µg/mL
E. coli TEM 2+ 4351 [23]
  MIC: 4 µg/mL (≈ 9.36 µM)
E. coli TEM 2+ DC2 4352
  MIC: 2 µg/mL (≈ 4.68 µM)
E. coli 2891 [24]
  MIC: 64 µg/mL (≈ 150 µM)
Sal. typhimurium 3860 [25]
  MIC: 4 µg/mL (≈ 9.36 µM)
Ent. cloacae P99+ 2646
  MIC: 128 µg/mL (≈ 299 µM)
Ent. cloacae P99- 2647 [26]
  MIC: 8 µg/mL (≈ 18.7 µM)
K. pneumoniae K1+ 4354
  MIC: 4 µg/mL (≈ 9.36 µM)
K. pneumoniae 4005
  MIC: 2 µg/mL (≈ 4.68 µM)
Prot. vulgaris 2829 [27]
  MIC: 4 µg/mL (≈ 9.36 µM)
Prot. morganii Sm^r 2833
  MIC: 8 µg/mL (≈ 18.7 µM)
[28]
  MIC: 4 µg/mL (≈ 9.36 µM)
[29]
  MIC: > 128 µg/mL
Ser. marcescens 2840 [30]
  MIC: 32 µg/mL (≈ 74.9 µM)
